According to patent US20240207308A1, “METHOD FOR CULTURING DENDRITIC CELLS” (NANOFAENTECH CO., LTD., priority 2021, published 2024):

Columns and labels:
Assay type in all cases: cell-based, mouse
[1] = system: bone marrow-derived dendritic cells; test: CD86 expression of LPS-stimulated bone marrow-derived dendritic cells, flow cytometry; settings: 24 hours, LPS 1 μg/mL
Protocol: Compared to spleen dendritic cells, when bone marrow-derived DCs (BMDCs) were stimulated with LPS, effects of the peptide combination and the addition of fibronectin were measured.
Mouse bone marrow-derived dendritic cells were obtained by differentiation from mouse bone marrow precursor cells. The femur and tibia of female C57BL/6 mouse were removed, and bone marrow was isolated using 10 mL of EDTA:BSS (Balanced Salt Solution) buffer containing 2% FBS. Red blood cells were removed with erythrocyte lysis buffer (Sigma-Aldrich), washed with EDTA:BSS buffer, followed by filtering cells using a 70 μm cell strainer (Falcon). Cells at 3×10^6/mL were dispensed in a 6-well plate, and interleukin-4 (20 ng/ml) (JW Creagene, Korea) and GM-CSF (20 ng/ml) (JW Creagene) were added and cultured for 7 days to induce differentiation. Differentiated dendritic cells were reacted with microbeads bound with CD11c antibody (eBioscience), was separated using CD11c Microbeads Ultrapure (MACS, Milteni Biotec), and then cultured.
In FIG. 17, while culturing 2×10^5/mL of bone marrow-derived dendritic cells for 24 hours, the peptides of P1, P2 and P3 were each added at a concentration of 200 μg/mL or fibronectin was added at a concentration of 200 μg/mL. […]

spleen dendritic cells [2] = test: CD86 expression of spleen dendritic cells after immunostimulant (LPS or poly (I:C)), flow cytometry
Protocol: In FIG. 14, the expression level of CD86 in spleen primary dendritic cells cultured for 24 hours was measured similarly to the expression level of CD86 increased when E. coli LPS as an activation-inducing agent was used for treatment at a concentration of 1 μg/mL. […] CD86 expression of spleen dendritic cells cultured with addition of fibronectin was not increased even when 1 μg/mL LPS was treated.
In FIG. 20, compared to LPS binding to Toll-like receptor-4 of immune cells and inflammatory cells including dendritic cells, when poly (I:C) (polyinosinic:polycytidylic acid), which is similar to double-stranded RNA in terms of structure and is known as an immunostimulant that binds to Toll-like receptor-3, was administered at a concentration of 50 μg/mL, the increase in the expression of CD86 in spleen dendritic cells was inhibited when cultured with addition of fibronectin.

spleen dendritic cells [3] = test: Flow cytometry of CD86, MHC-II, CD80, CD40 on cultured spleen dendritic cells (self-activation)
Protocol: Mouse spleen dendritic cells were obtained by adding EDTA-BSS (Balanced Salt Solution) buffer and collagenase solution (DMEM containing 100 units of collagenase type IV, medium containing low glucose) to spleens of female C57BL/6 mice and cutting it with surgical scissors, mixing the same with 6 mL of collagenase treatment solution, and incubating the mixture for 30 minutes. The separated whole spleen tissue was filtered using a 70 μm cell strainer (Falcon), followed by centrifugation at 1800 rpm for 5 minutes thus to separate the cells. Red blood cells were removed by adding red blood cell lysis buffer (Sigma-Aldrich) to the cells and washed twice with RPMI-1640 medium containing 10% fetal bovine serum (FBS). Dendritic cells were reacted with CD11c^+ antibody-bound microbeads and isolated using CD11c Microbeads Ultrapure (MACS, Milteni Biotec, USA).
In FIG. 2, in order to determine whether self-activation occurs when primary dendritic cells isolated from the spleen are cultured, dendritic cells were dispensed in a 24-well plate at 2×10^5/mL, and after culturing for 6 hours in RPMI-1640 medium at 37° C. under 5% CO2 condition, the expression levels of MHC-II, CD86, CD80 and CD40 were analyzed on the surface of dendritic cells using a flow cytometer (MACSQuant VYB flow cytometer, Miltenyi Biotec). Results measured using a flow cytometer were analyzed using FlowJo v10 (Tree Star, Ashland). The expression levels of CD86, CD80 and CD40 were shown as the percentage of cells stained with CD11c, and the expression level of MHC-II was shown as mean fluorescence intensity (MFI), which is the mean fluorescence intensity of fluorescence.
In FIG. 7, when culturing spleen dendritic cells, each of the prepared peptides was added at a concentration of 200 μg/mL and the expression level of CD86 was measured 6 hours after culture. When each peptide was used alone for treatment, the expression of CD86 was not inhibited in spleen dendritic cells. […] Compared to when the cells were treated with these three kinds of peptides, the expression was not inhibited even when the two kinds of peptides were used together for treatment. * indicates statistical significance as P<0.05 or less compared to the P1, P1-2, and P2-1 conditions.
In FIG. 9, peptides containing P1 and P2 and amino acids of these peptides as well as P3 peptide in a combination of three types were added to the spleen dendritic cell culture medium, and after culturing for 6 hours, the expression level of CD86 was measured by flow cytometry.
In FIG. 24, different concentrations of LP1, LP2 and LP3 were added to reach a concentration of 800 μg/mL, and spleen dendritic cells (2×10^5/mL) were cultured for 6 hours or 24 hours, and the CD86 expression level was measured by flow cytometry (MACSQuant VYB flow cytometer, Miltenyi Biotec). The measured results were analyzed using FlowJo v10 (Tree Star, Ashland).
In FIG. 25, when spleen primary dendritic cells were dispensed at 2×10^5/mL and cultured for 24 hours while scrambled peptides of S-LP1, S-LP2 and S-LP3 were each added at a concentration of 800 μg/mL, the increase in the expression of CD86 was not inhibited. Further, the expression of CD86 was not reduced even when the scrambled peptides S-P1, S-P2 and S-P3 were simultaneously treated at a concentration of 600 μg/mL, respectively.

fibronectin
CD86 expression by LPS ([1]; BMDC 2×10^5/mL, 200 μg/mL): did not occur
concentration from which the increase in CD86 expression by LPS was inhibited ([1]; BMDC): ≥ 50 µg/mL
expression of CD86 by LPS stimulation (spleen dendritic cells [2]; cultured 24 hours with the substance, 1 μg/mL LPS): not increased
increase in the expression of CD86 by poly (I:C) (spleen dendritic cells [2]; poly (I:C) 50 μg/mL, 24 hours, peptides 200 μg/mL each): inhibited
expression level of CD86 or MHC-II (self-activation) (spleen dendritic cells [3]; 200 μg/mL (laminin 200 μg/mL or higher), cultured 6 hours): self-activation did not occur
expression of CD86 and MHC-II as well as CD80 and CD40 (spleen dendritic cells [3]; 200 μg/mL, cultured 6 hours): not increased
concentration most effective for self-activation of spleen dendritic cells (spleen dendritic cells [3]; cultured 6 hours): 200 µg/mL
expression of MHC-II, CD80 and CD40 in addition to CD86 (spleen dendritic cells [3]; cultured 6 hours or 24 hours, peptides 200 μg/mL each): significantly inhibited
